Here are results for two compounds from patent US20130040908A1, “SUBSTITUTION DERIVATIVES OF N6-BENZYLADENOSINE-5' -MONOPHOSPHATE, METHODS OF PREPARATION THEREOF, USE THEREOF AS MEDICAMENTS, AND THERAPEUTIC PREPARATIONS CONTAINING THESE COMPOUNDS” (BIOAPEX, S.R.O., priority 2010, published 2013).

The test system of one data set is Human lymphocytes. Briefly: Immunosuppressive activity, 3H-thymidine incorporation in concanavalin A activated lymphocytes. The format is cell-based. The settings on record: 72 hours, [3H]-TdR. An excerpt:
One of the most important parameters of specific cellular immunity is the proliferative response of lymphocytes to antigens or polyclonal mitogens. The majority of normal mammalian peripheral lymphocytes comprise resting cells. Antigens or nonspecific polyclonal mitogens have the capacity to activate lymphoid cells and this is accompanied by dramatic changes of intracellular metabolism (mitochondrial activity, protein synthesis, nucleic acids synthesis, formation of blastic cells and cellular proliferation). […] Variety of in vitro assays was developed to measure proliferative response of lymphocytes. The most commonly used is ^3H-thymidine incorporation method.
During cell proliferation, DNA has to be replicated before the cell is divided into two daughter cells. This close association between cell doublings and DNA synthesis is very attractive for assessing cell proliferation. If labelled DNA precursors are added to the cell culture, cells that are about to divide incorporate the labelled nucleotide into their DNA. Traditionally, those assays usually involve the use of radiolabelled nucleosides, particularly tritiated thymidine ([^3H]-TdR). The amount of [^3H]-TdR incorporated into the cellular DNA is quantified by liquid scintillation counting. Human heparinized peripheral blood was obtained from healthy volunteers by cubital vein punction. The blood was diluted in PBS (1:3) and mononuclear cells were separated by centrifugation in Ficoll-Hypaque density gradient (Pharmacia, 1.077 g/ml) at 2200 rpm for 30 minutes. Following centrifugation, lymphocytes were washed in PBS and resuspended in cell culture medium (RMPI 1640, 2 mM glutamine, 100 U/ml penicillin, 100 μg/ml streptomycin, 10% fetal calf serum and sodium bicarbonate).
The cells were diluted at target density of 1.100.000 cells/ml and were added by pipette (180 μl) into 96-well microtiter plates. Four-fold dilutions of the intended test concentration were added at time zero in 20 μl aliquots to the microtiter plate wells. Usually, test compound was evaluated at six 4-fold dilutions. In routine testing, the highest well concentration was 266.7 μM. All drug concentrations were examined in duplicates. All wells with exception of unstimulated controls were activated with 50 of concanavalin A (25 μg/ml). Incubations of cells with test compounds lasted for 72 hours at 37° C., in 5% CO2 atmosphere and 100% humidity. At the end of incubation period, the cells were assayed by using the [^3H]-TdR:
Cell cultures were incubated with 0.5 μCi (20 μl of stock solution 500 μCi/ml per well for 6 hours at 37° C. and 5% CO2. The automated cell harvester was used to lyse cells in water and adsorb the DNA onto glass-fiber filters in the format of microtiter plate. The DNA incorporated [^3H]-TdR was retained on the filter while unincorporated material passes through. The filters were dried at room temperature overnight, sealed into a sample bag with 10-12 ml of scintillant. The amount of [^3H]-TdR present in each filter (in cpm) was determined by scintillation counting in a Betaplate liquid scintillation counter. The effective dose of immunosuppressant (ED) was calculated using the following equation: ED=(CCPMdrug exposed well/mean CCPMcontrol wells)×100%. The ED50 value, the drug concentration inhibiting proliferation of 50% of lymphocytes, was calculated from the obtained dose response curves.

Another data set concerns Leukemia cell line CEM. Put plainly: Flow cytometry of DNA fragmentation (sub-G1) in CEM cells. The format is cell-based. As to conditions: IC50, triple IC50 and fivefold IC50. The procedure:
One of the hallmarks of apoptosis is fragmentation of DNA. It can be measured by flowcytometry of the cells stained with propidium iodide. Because the fragmentation results in a loss of a fraction of the nuclear DNA, apoptotic cells have a lower DNA content than cells in G1 phase of cell cycle and can be detected as a subG1 peak in the histogram.
Leukemia cell line CEM was cultured in cell culture medium (DMEM containing 5 g/l glucose, 2 mM glutamine, 100 U/ml peniciline, 100 μg/ml streptomycine, 10% fetal calf serum and sodium bicarbonate). 24 hours before treatment, cell suspensions were centrifuged, diluted with fresh medium to concentration of 100000 cells per ml with fresh medium and pipetted in 10 ml aliquotes Petri dishes. After an incubation for a given time period, the cells were collected by centrifugation (4° C., 600 g), washed with PBS (4° C.) and fixed with 70% ethanol at −20° C. overnight. Low molecular weight DNA fragmentse were extracted with citrate buffer (11.36 g trisodium citrate dihydrate/1). The nuclei were stained with the solution of propidium iodide in PBS (10 μg/ml) containing RNase A (60 IU per sample). After 1 hour incubation the samples were analyzed by flowcytometry (excitation 488 nm, emission above 620 nm).
In general terms: A flow cytometer gives signals particle by particle.

Another data set deals with caspase-3. Briefly: Caspase-3 activity in CEM cells (Apo-ONE kit). Format: cell-based. As to conditions: 10 μM, 12 and 24 hours. The procedure: In the course of apoptosis, caspase cascade is activated. Caspase-3 is an effector caspase that plays a role in the induction of some changes typical for apoptosis (chromatin condensation, DNA fragmentation). Leukemia cell line CEM was cultured in cell culture medium (DMEM containing 5 g/l glucose, 2 mM glutamine, 100 U/ml peniciline, 100 μg/ml streptomycine, 10% fetal calf serum and sodium bicarbonate). 24 hours before treatment, cell suspensions were centrifuged, diluted to concentration of 500000 cells per ml with fresh medium and pipetted in 50 μl, aliquotes into 96-well plate. After 12 and 24 hours of incubation with the test compound, the activity of caspase-3 was measured using commercial kit (Apo-ONE, Promega) that is based on quantification of hydrolysis of fluorogenic substrate Z-DEVD-R110 (excitation 480 nm/emission 520 nm). Reaction specificity was confirmed in a control experiment, when both test compound and caspase-3 inhibitor Ac-DEVD-CHO were added. All experiments were done in triplicate.

The next data set has as its system P388D1 leukemia. Briefly: In vivo anticancer activity, survival model of P388D1 leukemia. As to conditions: oral 250 mg/kg twice daily. The procedure: Screening of biological activity of compound 21 was performed on survival model of P388D1 leukemia transplanted intraperitoneally with 2.10^5 cells. DBA-2 mice were used as a host. One day following the leukemia transplantation, treatment with 21 was initiated. The drug was given orally by gastric gavages in total volume of 200 μl/dose twice daily at dose 250 mg/kg in two chemotherapy cycles (Days 1-3 and 7-9). The compound 21 was solubilized in 5% […], 30% polyethylene glycol 400, 65% tartar buffer (pH 3.0). Survival analysis of treated animals (10 mice/group) was preformed in comparison with vehicle treated mice using Kaplan-Meier method and the significance was evaluated by the log-rank test. Body weight of experimental animals was evaluated in parallel in order to reflect toxicity and efficacy of therapy. Comparative analysis of body weight was performed using non-parametric t-test.

Another data set relates to p21^WAF-1. Briefly: p21WAF-1 induction in MCF-7 cells (immunoblot). The format is cell-based. As to conditions: MCF-7, 0-100 μM 12 hours; 1 μM 0.5-24 hours. The procedure:
MCF-7 cells cultured at 37° C. in 5% CO2 atmosphere in DMEM medium supplemented with 10% foetal calf serum were treated with compound 28 concentration ranges of 0-100 μM. Compound 28 was added into the medium from the 100 mM stock solution in DMSO. Cells were harvested 12 hours after incubation with compound 28, centrifuged (1000 rpm, 4° C., 5 min), washed twice by ice-cold PBS and re-centrifuged. These washed cells were then lysed by 1×CSB (loading buffer for SDS-PAGE, i.e. electrophoresis of proteins in polyacrylamide gel containing SDS). Cell lysate proteins were separated by SDS-PAGE and transferred onto a nitrocelulose (NC) membrane. NC membrane was blocked by 5% skimmed milk, 0.1% Tween 20 in PBS. Protein level of p21^WAF-1 and actin (as a loaded protein volume control) were detected immunochemically using commercially available specific monoclonal antibodies anti-p21^WAF-1 (Ab-1, Calbiochem) and anti-Actin (Clone AC-40, Sigma-Aldrich). The primary antibodies bind to target proteins were detected using rabbit secondary peroxidase-labeled antibody (RAM-Px, DAKO), followed by chemiluminiscence (ECL, Amersham-Pharmacia).
In general terms: In western blotting, separated proteins are transferred to a membrane and probed.

Take `O=P(O)(O)OC[C@H]1O[C@@H](n2cnc3c(NCc4ccccc4O)ncnc32)[C@H](O)[C@@H]1O` [Compound 21, 6-(2-hydroxybenzylamino)purine riboside-5′-monophosphate]: the “Human lymphocytes ED50” value in the data set on Human lymphocytes amounted to 6.7 µM. The “DNA fragmentation (apoptotic sub-G1 fraction)” value in the data set on Leukemia cell line CEM was “induction of DNA fragmentation”. Also, the “activity of caspase-3” value with caspase-3 was “activates caspase-3”. Also, in the data set with P388D1 leukemia, the “body weight of treated animals” value is given as “only slight reduction” and the tolerability in animals result is given as “good tolerability”. In addition, the mean survival time with P388D1 leukemia (Days 1-3 and 7-9, vehicle group 13.9 days) stood at 15.4 days. The “survival analysis (Kaplan-Meier, log-rank)” value in the data set with P388D1 leukemia (P=0.0409 versus vehicle) is “significantly better survival”.
For the compound `COc1cccc(CNc2ncnc3c2ncn3[C@@H]2O[C@H](COP(=O)(O)O)[C@@H](O)[C@H]2O)c1O` [Compound 28, 6-(2-hydroxy-3-methoxybenzylamino)purine riboside-5′-monophosphate], the “Human lymphocytes ED50” value with Human lymphocytes came to 1.2 µM. In the data set on p21^WAF-1, the “p21^WAF-1 protein induction” value is on record as “efficient p21^WAF-1 protein induction”.
